Test results taken from patent publication US12410152B2, “Oxazole and thioazole-type cullin ring ubiquitin ligase compounds and uses thereof” (Proxygen GmbH, priority 2019, dated 2025).

Each molecule was assayed on UBE2Mresc KBM7 cells (assay: Cell viability assay, KBM7 UBE2M rescue (UBE2M cDNA re-introduced)). Settings: Table 1, data of FIG. 4; 3-day treatment; read-out: LC50 UBE2Mresc.
Format: cell-based, human
Protocol: (§1) KBM7 cells with the specified genetic backgrounds were grown in IMDM supplemented with 10% FBS and 1% penicillin/streptomycin (pen/strep). AsPC1, HCT116, NCI-H446 and 293T cells were grown in DMEM 10% FBS and 1% pen/strep. MV4; 11, Jurkat and Be (2) C cells were grown in RPMI 10% FBS 1% pen/strep. KBM7, AsPC1 and HCT116 cells expressing Cas9 were generated using the plasmid Lenti_Cas9_Blasti (Addgene #52962). The lentiviral plasmid lentiGuide-Puro (Addgene #52963) was used to express sgRNAs against the genes UBE2M (in KBM7-Cas9, AsPC1-Cas9 and HCT116-Cas9 cells), UBE2G1 (in KBM7-Cas9 cells) and […] (in KBM7-Cas9 cells). The lentiviral plasmid lentiGuide-Puro-IRES-mCherry (modified from Addgene #52963) was used to express sgRNAs against CUL4A (in KBM7-Cas9 cells). The lentiviral plasmid pLenti-PGK-Hygro-DEST-UBE2M was generated by Gateway cloning (empty destination vector Addgene #19066), and used to generate UBE2M^resc KBM7 cells.
Indeed, >20 compounds were identified that fulfilled this criteria. […] The initial screening assay was conducted at two concentrations (10 μM and 500 nM). The dose ranging differential effect of these four hits was assessed/validated, comparing their activity in KBM7WT vs UBE2MMUT cells. […] A genetic rescue experiment, where UBE2M cDNA was re-introduced into the UBE2Mmut clone (UBE2Mresc), did (at least partically) reconstitute the initial sensitivity to the assessed compounds (FIG. 4, Table 1).
(§2) KBM7^WT, mutant KBM7 clones (UBE2M^mut, UBE2M^resc, UBE2G1^mut CUL4A^mut, CUL4B^mut), and 3-day doxycycline pretreated KBM7^iCas9_sgDDB1 cells were seeded at a cell density of 50,000 cells/mL in 96-well plates with DMSO or drug, in triplicates. Drugs used: IC020772.1/IC020772.1X, IC021313.2/IC021313.2X, T6938051/T6938051X or THZ531. Cells were treated for 3 days, after which cell viability was assessed according to manufacturer's protocol (CellTiter Glo, Promega G7570). Survival curves and EC50 values were calculated by best-fit analysis of the log 10 drug concentration to fold change of drug-treated cells over DMSO-treated cells. […]
Cc1ccc(C(=O)N2CSCC2C(=O)N=c2[nH]cc(C)s2)o1 (stereo not drawn) [Compound T6938051] showed a CC50 of 1.15 µM.
O=C(CSc1nc2ccccc2[nH]1)Nc1ccc(Cl)cn1 [IC021313.2] was tested, and the CC50 was 1.94 µM.
O=C(CSc1nnc2c(n1)[nH]c1ccccc12)Nc1ccc(Cl)cn1 [IC020772.1] showed a CC50 of 0.75 µM.

Each molecule was assayed on KBM7 CUL4Amut cells (assay: Cell viability assay, KBM7 CUL4A mutant). Settings: Table 2, data of FIG. 6; 3-day treatment; read-out: LC50 CUL4Amut.
Format: cell-based, human
Protocol: as §1
Validating the previous results, a strong enrichment for cells transduced with UBE2Mtargeting sgRNAs was detected. […] The fact that Rbx1 was not detected in the initial experiment is likely explained by the fact that prolonged loss of RBX1 function is detrimental to cellular fitness. […] To understand if the tested compounds were uniquely dependent on CUL4B over CUL4A, a differential drug efficacy was assessed in dose ranging viability assays in KBM7 WT cells and isogenic clones deficient in either CUL4A, CUL4B, and UBE2G1. […]
as §2, with “Drugs used: IC020772.1/IC020772.1X, IC021313.2/IC021313.2X, T6938051/T6938051X or THZ531.” left out
In the case of Cc1ccc(C(=O)N2CSCC2C(=O)N=c2[nH]cc(C)s2)o1 (stereo not drawn) [Compound T6938051], the CC50 is reported as 2.26 µM.
For O=C(CSc1nc2ccccc2[nH]1)Nc1ccc(Cl)cn1 [IC021313.2], the CC50 was 1.56 µM.
O=C(CSc1nnc2c(n1)[nH]c1ccccc12)Nc1ccc(Cl)cn1 [IC020772.1] showed a CC50 of 1.22 µM.

The molecules below were run on CDK12/13 (assay: CDK12/13 destabilization (expression proteomics and Western blot)). Settings: KBM7 cells.
Format: cell-based, human
Protocol: The hypomorphic phenotype of the mutated UBE2M allele in KBM7 cells (KBM7 UBE2M^mut cells) was assessed. In this regard, CRISPR/Cas9-induced mutation of UBE2M inactivated CRL activity including CRL4^CRBN and CRL2^VHL. […] Additionally, CCNK destabilization by all three compounds was validated via time-resolved immunoblots wherein CCNK degradation was evident after two hours (FIG. 19c).
PBS-washed cell pellets were lysed in 50 mM Tris pH 7.9, 8M Urea and 1% CHAPS and incubated with shaking at 4° C. for at least 30 min. 20 μg of supernatants were run and transferred for detection. Antibodies used: CUL1 (Santa Cruz Biotechnology, sc-1276), CUL2 (Sigma-Aldrich, SAB2501565-100), CUL3 (Cell Signaling Technology, 2759), CUL4A (Cell Signaling Technology, 2699S), CUL4B (Proteintech, 12916-1-AP), CUL5 (Santa Cruz Biotechnology, sc-373822), UBE2M (Santa Cruz Biotechnology, sc-390064), DDB1 (Cell Signaling Technology, 5428S), CCNK (Bethyl, A301-939A), CDK12 (Cell Signaling Technology, 11973S), CDK13 (Bethyl, A301-458A), RBM39 (1:500, Santa Cruz Biotechnology sc-376531), V5 (Cell Signaling Technology, 13202), Ubiquityl-Histone H2A (K119) (Cell Signaling, 8240-20). ACTIN (Sigma-Aldrich, A5441), VINCUL1N (Santa Cruz Biotechnology, sc-25336). Secondary antibodies anti-mouse/rabbit/goat (Jackson ImmunoResearch 115-035-003, 111-035-003 and 705-035-003).
Comparison of overall proteome-wide changes in KBM7 cells treated with IC020772.1 (2.5 μM), IC021313.2 (7 μM) or T6938051 (3.5 μM) for 5 h and 12h, using quantitative proteomics based on isobaric tagging.
For Cc1ccc(C(=O)N2CSCC2C(=O)N=c2[nH]cc(C)s2)o1 (stereo not drawn) [Compound T6938051], the CDK12/13 destabilization was “milder CDK12/13 destabilization”.
With O=C(CSc1nc2ccccc2[nH]1)Nc1ccc(Cl)cn1 [IC021313.2] the CDK12/13 destabilization was “milder CDK12/13 destabilization”.
O=C(CSc1nnc2c(n1)[nH]c1ccccc12)Nc1ccc(Cl)cn1 [IC020772.1] was tested, and the CDK12/13 destabilization was “milder CDK12/13 destabilization”.
